{"source": "patent US10875895B2", "about": "“Antibacterial cell-penetrating peptides” (Purdue Research Foundation, priority 2018, dated 2020)", "key": {"S. enteritidis [1]": {"tested_on": "S. enteritidis", "experiment": "microbe, parasite or virus in culture", "conditions": "Salmonella enterica"}, "S. typhimurium LT2 [2]": {"tested_on": "S. typhimurium LT2", "experiment": "microbe, parasite or virus in culture", "conditions": "Salmonella enterica"}, "K. pneumonia NR 41928 [3]": {"tested_on": "K. pneumonia NR 41928", "experiment": "microbe, parasite or virus in culture", "conditions": "Klebsiella pneumoniae, NR41928"}, "A. baumannii 1605 [4]": {"tested_on": "A. baumannii 1605", "experiment": "microbe, parasite or virus in culture", "conditions": "Acinetobacter baumannii"}, "S. epidermidis NRS 101 [5]": {"tested_on": "S. epidermidis NRS 101", "experiment": "microbe, parasite or virus in culture", "conditions": "Staphylococcus epidermidis, NRS101"}, "S. aureus NRS 384 [6]": {"tested_on": "S. aureus NRS 384", "experiment": "microbe, parasite or virus in culture", "conditions": "Staphylococcus aureus, NRS384"}, "S. aureus NRS 383 [7]": {"tested_on": "S. aureus NRS 383", "experiment": "microbe, parasite or virus in culture", "conditions": "Staphylococcus aureus, NRS383"}, "A baumannii 19606 [8]": {"tested_on": "A baumannii 19606", "experiment": "microbe, parasite or virus in culture", "conditions": "Acinetobacter baumannii"}, "E. coli 21922 [9]": {"tested_on": "E. coli 21922", "experiment": "microbe, parasite or virus in culture", "conditions": "Escherichia coli"}, "L. monocytogenes 191112 [10]": {"tested_on": "L. monocytogenes 191112", "experiment": "microbe, parasite or virus in culture", "conditions": "Listeria monocytogenes"}, "S. aureus NRS 382 [11]": {"tested_on": "S. aureus NRS 382", "experiment": "microbe, parasite or virus in culture", "conditions": "Staphylococcus aureus, NRS382"}, "K. pneumonia NR 41920 [12]": {"tested_on": "K. pneumonia NR 41920", "experiment": "microbe, parasite or virus in culture", "conditions": "Klebsiella pneumoniae, NR41920"}, "P. aeruginosa 31040 [13]": {"tested_on": "P. aeruginosa 31040", "experiment": "microbe, parasite or virus in culture", "conditions": "Pseudomonas aeruginosa"}, "P. aeruginosa 50573 [14]": {"tested_on": "P. aeruginosa 50573", "experiment": "microbe, parasite or virus in culture", "conditions": "Pseudomonas aeruginosa"}, "P. aeruginosa 48982 [15]": {"tested_on": "P. aeruginosa 48982", "experiment": "microbe, parasite or virus in culture", "conditions": "Pseudomonas aeruginosa"}, "A. baumannii 1747 [16]": {"tested_on": "A. baumannii 1747", "experiment": "microbe, parasite or virus in culture", "conditions": "Acinetobacter baumannii"}, "VRSA 5 [17]": {"tested_on": "VRSA 5", "experiment": "microbe, parasite or virus in culture", "conditions": "Staphylococcus aureus"}, "S. aureus ATCC 6538 [18]": {"tested_on": "S. aureus ATCC 6538", "experiment": "microbe, parasite or virus in culture", "conditions": "Staphylococcus aureus, ATCC6538"}, "E. faecium 700221 [19]": {"tested_on": "E. faecium 700221", "experiment": "microbe, parasite or virus in culture", "conditions": "Enterococcus faecium"}, "VRSA 10 [20]": {"tested_on": "VRSA 10", "experiment": "microbe, parasite or virus in culture", "conditions": "Staphylococcus aureus"}, "P. aeruginosa 31041 [21]": {"tested_on": "P. aeruginosa 31041", "experiment": "microbe, parasite or virus in culture", "conditions": "Pseudomonas aeruginosa"}, "S. flexneri 1a": {"tested_on": "S. flexneri 1a", "experiment": "MIC, broth microdilution (CLSI)", "type": "cell-based", "conditions": "enteric pathogens", "description": "(§1) The minimum inhibitory concentration (MIC) of the peptides (in uM/ml) and control antibiotics (vancomycin and gentamicin) in μg/mL, were determined using the broth microdilution method according to the guidelines of the Clinical and Laboratory Standards Institute (CLSI) guidelines. See CLSI. 2007. Methods for dilution antimicrobial susceptibility tests for bacteria that grow aerobically; approved standard M7-A7. CLSI, Wayne, Pa."}, "S. aureus RN 4220": {"tested_on": "S. aureus RN 4220", "experiment": "MIC, broth microdilution (CLSI)", "type": "cell-based", "description": "as §1"}, "K. pneumoniae 1706 [22]": {"tested_on": "K. pneumoniae 1706", "experiment": "microbe, parasite or virus in culture", "conditions": "Klebsiella pneumoniae"}, "E. cloacae 1134 [23]": {"tested_on": "E. cloacae 1134", "experiment": "microbe, parasite or virus in culture", "conditions": "Enterobacter cloacae"}, "L. monocytogenes 191112 [24]": {"tested_on": "L. monocytogenes 191112", "conditions": "L. monocytogenes 191112; enteric pathogens"}, "E. cloacae 1134 [25]": {"tested_on": "E. cloacae 1134", "conditions": "E. cloacae 1134; ESKAPE pathogens"}, "S. epidermidis NRS 101 [26]": {"tested_on": "S. epidermidis NRS 101", "conditions": "S. epidermidis NRS 101"}, "S. aureus NRS 384 [27]": {"tested_on": "S. aureus NRS 384", "conditions": "S. aureus NRS 384; ESKAPE pathogens"}, "P. aeruginosa 48982 [28]": {"tested_on": "P. aeruginosa 48982", "conditions": "P. aeruginosa 48982"}, "K. pneumonia NR 41928 [29]": {"tested_on": "K. pneumonia NR 41928", "conditions": "K. pneumonia NR 41928; ESKAPE pathogens"}, "VRSA 10 [30]": {"tested_on": "VRSA 10"}, "S. enteritidis [31]": {"tested_on": "S. enteritidis", "conditions": "S. enteritidis; enteric pathogens"}, "S. aureus ATCC 6538 [32]": {"tested_on": "S. aureus ATCC 6538", "conditions": "S. aureus ATCC 6538"}, "S. aureus NRS 383 [33]": {"tested_on": "S. aureus NRS 383", "conditions": "S. aureus NRS 383"}, "K. pneumonia NR 41920 [34]": {"tested_on": "K. pneumonia NR 41920", "conditions": "K. pneumonia NR 41920; ESKAPE pathogens"}, "A. baumannii 1747 [35]": {"tested_on": "A. baumannii 1747", "conditions": "A. baumannii 1747"}, "P. aeruginosa 50573 [36]": {"tested_on": "P. aeruginosa 50573", "conditions": "P. aeruginosa 50573; ESKAPE pathogens"}, "S. typhimurium LT2 [37]": {"tested_on": "S. typhimurium LT2", "conditions": "S. typhimurium LT2; enteric pathogens"}, "P. aeruginosa 31041 [38]": {"tested_on": "P. aeruginosa 31041", "conditions": "P. aeruginosa 31041"}, "A baumannii 19606 [39]": {"tested_on": "A baumannii 19606", "conditions": "A baumannii 19606"}, "K. pneumoniae 1706 [40]": {"tested_on": "K. pneumoniae 1706", "conditions": "K. pneumoniae 1706; ESKAPE pathogens"}, "E. faecium 700221 [41]": {"tested_on": "E. faecium 700221", "conditions": "E. faecium 700221; ESKAPE pathogens"}, "P. aeruginosa 31040 [42]": {"tested_on": "P. aeruginosa 31040", "conditions": "P. aeruginosa 31040"}, "A. baumannii 1605 [43]": {"tested_on": "A. baumannii 1605", "conditions": "A. baumannii 1605; ESKAPE pathogens"}, "VRSA 5 [44]": {"tested_on": "VRSA 5"}, "E. coli 21922 [45]": {"tested_on": "E. coli 21922", "conditions": "E. coli 21922; enteric pathogens"}, "S. aureus NRS 382 [46]": {"tested_on": "S. aureus NRS 382", "conditions": "S. aureus NRS 382"}}, "note": "Read-outs that look alike come from different tables or passages of the source."}
{"molecule": "CN[C@H](CC(C)C)C(=O)N[C@H]1C(=O)N[C@@H](CC(N)=O)C(=O)N[C@H]2C(=O)N[C@H]3C(=O)N[C@H](C(=O)N[C@H](C(=O)O)c4cc(O)cc(O)c4-c4cc3ccc4O)[C@H](O)c3ccc(c(Cl)c3)Oc3cc2cc(c3O[C@@H]2O[C@H](CO)[C@@H](O)[C@H](O)[C@H]2O[C@H]2C[C@](C)(N)[C@H](O)[C@H](C)O2)Oc2ccc(cc2Cl)[C@H]1O", "note": "[Vancomycin, vancomycin]", "values": [{"measurement": "MIC", "setting": "S. enteritidis [1]", "value": "> 32", "unit": "µM"}, {"measurement": "MIC", "setting": "S. typhimurium LT2 [2]", "value": "> 32", "unit": "µM"}, {"measurement": "MIC", "setting": "K. pneumonia NR 41928 [3]", "value": "> 32", "unit": "µM"}, {"measurement": "MIC", "setting": "A. baumannii 1605 [4]", "value": 8, "unit": "µM"}, {"measurement": "MIC", "setting": "S. epidermidis NRS 101 [5]", "value": 2, "unit": "µM"}, {"measurement": "MIC", "setting": "S. aureus NRS 384 [6]", "value": 0.5, "unit": "µM"}, {"measurement": "MIC", "setting": "S. aureus NRS 383 [7]", "value": 4, "unit": "µM"}, {"measurement": "MIC", "setting": "A baumannii 19606 [8]", "value": 32, "unit": "µM"}, {"measurement": "MIC", "setting": "E. coli 21922 [9]", "value": "> 32", "unit": "µM"}, {"measurement": "MIC", "setting": "L. monocytogenes 191112 [10]", "value": 1, "unit": "µM"}, {"measurement": "MIC", "setting": "S. aureus NRS 382 [11]", "value": 1, "unit": "µM"}, {"measurement": "MIC", "setting": "K. pneumonia NR 41920 [12]", "value": "> 32", "unit": "µM"}, {"measurement": "MIC", "setting": "P. aeruginosa 31040 [13]", "value": "> 32", "unit": "µM"}, {"measurement": "MIC", "setting": "P. aeruginosa 50573 [14]", "value": "> 32", "unit": "µM"}, {"measurement": "MIC", "setting": "P. aeruginosa 48982 [15]", "value": "> 32", "unit": "µM"}, {"measurement": "MIC", "setting": "A. baumannii 1747 [16]", "value": "> 32", "unit": "µM"}, {"measurement": "MIC", "setting": "VRSA 5 [17]", "value": 4, "unit": "µM"}, {"measurement": "MIC", "setting": "S. aureus ATCC 6538 [18]", "value": 0.5, "unit": "µM"}, {"measurement": "MIC", "setting": "E. faecium 700221 [19]", "value": "> 32", "unit": "µM"}, {"measurement": "MIC", "setting": "VRSA 10 [20]", "value": "> 32", "unit": "µM"}, {"measurement": "MIC", "setting": "P. aeruginosa 31041 [21]", "value": "> 32", "unit": "µM"}, {"measurement": "MIC", "setting": "S. flexneri 1a; Shigella flexneri", "value": "> 32", "unit": "µM"}, {"measurement": "MIC", "setting": "S. aureus RN 4220; Staphylococcus aureus, RN4220", "value": 0.5, "unit": "µM"}, {"measurement": "MIC", "setting": "K. pneumoniae 1706 [22]", "value": "> 32", "unit": "µM"}, {"measurement": "MIC", "setting": "E. cloacae 1134 [23]", "value": "> 32", "unit": "µM"}]}
{"molecule": "gentamicin", "values": [{"measurement": "MIC", "setting": "L. monocytogenes 191112 [24]", "value": 0.5, "unit": "µM"}, {"measurement": "MIC", "setting": "E. cloacae 1134 [25]", "value": 0.5, "unit": "µM"}, {"measurement": "MIC", "setting": "S. epidermidis NRS 101 [26]", "value": 32, "unit": "µM"}, {"measurement": "MIC", "setting": "S. aureus NRS 384 [27]", "value": 0.5, "unit": "µM"}, {"measurement": "MIC", "setting": "P. aeruginosa 48982 [28]", "value": ">32", "unit": "µM"}, {"measurement": "MIC", "setting": "K. pneumonia NR 41928 [29]", "value": 1, "unit": "µM"}, {"measurement": "MIC", "setting": "VRSA 10 [30]", "value": 0.5, "unit": "µM"}, {"measurement": "MIC", "setting": "S. enteritidis [31]", "value": 0.25, "unit": "µM"}, {"measurement": "MIC", "setting": "S. aureus ATCC 6538 [32]", "value": 0.125, "unit": "µM"}, {"measurement": "MIC", "setting": "S. aureus NRS 383 [33]", "value": ">32", "unit": "µM"}, {"measurement": "MIC", "setting": "K. pneumonia NR 41920 [34]", "value": 1, "unit": "µM"}, {"measurement": "MIC", "setting": "A. baumannii 1747 [35]", "value": 0.25, "unit": "µM"}, {"measurement": "MIC", "setting": "P. aeruginosa 50573 [36]", "value": 0.25, "unit": "µM"}, {"measurement": "MIC", "setting": "S. typhimurium LT2 [37]", "value": 0.5, "unit": "µM"}, {"measurement": "MIC", "setting": "P. aeruginosa 31041 [38]", "value": 32, "unit": "µM"}, {"measurement": "MIC", "setting": "A baumannii 19606 [39]", "value": 16, "unit": "µM"}, {"measurement": "MIC", "setting": "K. pneumoniae 1706 [40]", "value": 2, "unit": "µM"}, {"measurement": "MIC", "setting": "E. faecium 700221 [41]", "value": ">32", "unit": "µM"}, {"measurement": "MIC", "setting": "P. aeruginosa 31040 [42]", "value": 16, "unit": "µM"}, {"measurement": "MIC", "setting": "A. baumannii 1605 [43]", "value": ">32", "unit": "µM"}, {"measurement": "MIC", "setting": "VRSA 5 [44]", "value": 0.5, "unit": "µM"}, {"measurement": "MIC", "setting": "S. flexneri 1a", "value": 0.5, "unit": "µM"}, {"measurement": "MIC", "setting": "S. aureus RN 4220", "value": 0.5, "unit": "µM"}, {"measurement": "MIC", "setting": "E. coli 21922 [45]", "value": 2, "unit": "µM"}, {"measurement": "MIC", "setting": "S. aureus NRS 382 [46]", "value": 0.5, "unit": "µM"}]}
